Assay results reported in patent publication US6043357A, “HIV protease inhibitors” (The University of Queensland, priority 1994, dated 2000).
Entries after “also recorded” stand apart in the source; their conditions may differ. Like-named read-outs stand apart in the source and are kept apart here. Values belong to the compound of their own block, whether it stands above or below them.

Columns and labels:
HIV-1 protease = HIV-1 protease (Human immunodeficiency virus type 1 group M subtype B, UniProt P03369); assay: biochemical
Description: HIV-1 protease activity was measured at 37° C. using a continuous fluorimetric assay based on the method of Toth et al., (Toth et al., 1990, Int. J. Pept. Res. 36 544-550). The substrate, 2-aminobenzoyl-threonine-isoleucine-norleucine-(p-nitro)-phenylalanine-glutamine-arginine-NH2 (Abz-NF^* -6), was synthesised by solid phase peptide synthesis (Kent et al., 1991, In: Peptides 1990: Proceedings of the Twenty-First European Peptide Symposium (Girault, E. and Andrew, D. eds.) pp 172-173, ESCOM, Leiden). Enzyme activity was measured as the increase in fluorescence intensity upon substrate hydrolysis. The change in fluorescence intensity was monitored with a Perkin Elmer LS50B luminescence spectrometer fitted with a thermostatted micro cuvette holder. Measurements were carried out using an excitation wavelength of 320 nm (bandwith 5 nm) and an emission wavelength of […] (bandwith 5 nm).
Inhibition assays were routinely carried out at pH 6.5 and μ=0.1 M using a single substrate concentration. The assay mixtures contained 50 μM Abz-NF^* -6 in 100 mM 2-(N-morpholino)ethanesulphonate buffer, containing 10% (v/v) glycerol and 50 μg/ml bovine serum albumin, in a total final volume of 400 μl. Where inhibitors had to be dissolved in dimethyl sulphoxide or other organic solvents, the final concentration of solvent in the control and inhibition assays were kept absolutely constant because of the severe inhibitory effect of some solvents on the enzyme activity (Bergman et al., 1992, 17th Ann. Lorne Conf. on Protein Struct. and Funct. Abstr.). In all assays, the reaction was initiated by the addition of 10 μl of enzyme solution.

HIV-1 (strain TC354) = assay: Assay for anti-viral activity: HIV-1 (strain TC354) replication in PHA-stimulated cord blood mononuclear cells, reverse transcriptase activity; type: cell-based; details: read-out: effective concentration, inhibition of virus replication
Description: Method: Target cells (PHA-stimulated cord blood mononuclear cells) were washed free of PHA and inoculated with HIV-1 (strain TC354) at a multiplicity of infection of 1, in the presence of 20 μg/ml DEAE-dextran for 30 mins. Cells were washed to remove unbound virus and residual DEAE-dextran. 10^5 cells were added to each well of 96 well plate, solutions of test compounds were added, each tested in triplicate. Dilutions were prepared in RPMI/1640. Tissue culture medium (RPMI/1640 buffer, 10% FCS, 20 U/ml […]) was added to a final volume of 200 μl. Reverse transcriptase activity was assayed four days post inoculation, RT activity >30 cpm was considered positive for HIV-1 replication.

HIV = assay: Activity against HIV in cells / cell culture; type: cell-based

Compound: CC(C)(C)NC(=O)[C@@H]1CCCCN1C[C@@H](O)[C@@H]1Cc2ccc(cc2)OCCCC(=O)N[C@@H](CC(N)=O)C(=O)N1 [Compound 44]
IC50 (HIV-1 protease): 16 nM
EC50 (HIV-1 (strain TC354); Human immunodeficiency virus 1, 96 h): 1000 nM
anti-viral activity, stated in words (HIV): poor inhibitor of viral replication in cells

IC50 (HIV-1 protease; Table 9, R isomer, read-out: IC50): 1 nM
EC50 (HIV-1 (strain TC354); four days post inoculation): 100000 nM
IC50 (HIV; Human immunodeficiency virus 1, read-out: IC50, anti-viral activity against HIV in cell culture): < 1000 nM
Compound: CC[C@H](C)[C@@H]1NC(=O)[C@@H](NC[C@@H](O)[C@H](Cc2ccccc2)NC(=O)[C@@H](NC(=O)c2ccc3ccccc3n2)C(C)C)Cc2ccc(cc2)OCCCNC1=O [Compound 93]
protease inhibition, stated in words (HIV-1 protease): very potent inhibitor of HIV-1 protease; also recorded: equipotent as a protease inhibitor with the DuPont-Merck compound DM323

EC50 (HIV-1 (strain TC354); Human immunodeficiency virus 1, 96 h, four days post inoculation): 100 nM
Compound: CC(C)CCN(C[C@@H](O)[C@@H]1Cc2ccc(cc2)OCCCCC(=O)N[C@@H](C(C)C)C(=O)N1)S(=O)(=O)c1ccccc1 [Compound 68]

Compound: Ac-Ser-Leu-Asn-Phe-[CHOH--CH2 ]-Pro-Ile-Val-OMe (Ac-SLNFPIV-OMe; also: hydroxyethylene isostere [CHOH-CH2] replaces the Phe-Pro amide bond) [JG-365, reference compound]
IC50 (HIV-1 protease; R-isomer of JG-365, pH 6.5, 37° C., read-out: IC50 (Inhibitor Potency)): 44 nM
IC50 (HIV-1 protease; S-isomer of JG-365, pH 6.5, 37° C., read-out: IC50 (Inhibitor Potency)): 6 nM
anti-viral activity, stated in words (HIV): do not have anti-viral activity
activity against HIV in cells (HIV; at 100 μM): inactive
